A short description of this data set: Stability test of the reference solution of the compound of formula I (HPLC peak area). The data set is classed as physicochemical. Particulars: reference solution in 50% aqueous methanol (25 mg in 25 ml); injected at 0, 2, 4, 8, 12, 24 h after preparation, 20 μl each; within 24 hours.

Molecules are shown by their SMILES.

Consider one compound from patent CN109134447A, “一种富马酸卢帕替芬的杂质b及其制备方法和检测方法” (FUJIAN MINDONG REJUVENATION PHARMACEUTICAL Co Ltd, priority 2018, dated 2019).

Consider `Cc1cncc(C[N+]2(C)CCC(=C3c4ccccc4CC(=O)c4sccc43)CC2)c1.[Br-]` (stereo not shown) [式Ⅰ所示化合物], for which the “stability (peak area by HPLC)” value was “稳定”.
